Data published in patent publication US20190119282A1, “IMIDAZOPYRIDAZINES USEFUL AS INHIBITORS OF THE PAR-2 SIGNALING PATHWAY” (Vertex Pharmaceuticals Incorporated, priority 2013, published 2019).

Experiments:
[1] = molecular target: T1, PAR2 (HT-29 cells, SLIGKV activation) (Homo sapiens, UniProt P55085); test: Ca FLIPR TETRA assay, ANTAGONIST mode, stimulation with 8 μM SLIGKV; format: cell-based; settings: for IC50: HT-29 cells
T1 construct: host or cells: HT-29 cells
T1 sequence (P55085 26-397): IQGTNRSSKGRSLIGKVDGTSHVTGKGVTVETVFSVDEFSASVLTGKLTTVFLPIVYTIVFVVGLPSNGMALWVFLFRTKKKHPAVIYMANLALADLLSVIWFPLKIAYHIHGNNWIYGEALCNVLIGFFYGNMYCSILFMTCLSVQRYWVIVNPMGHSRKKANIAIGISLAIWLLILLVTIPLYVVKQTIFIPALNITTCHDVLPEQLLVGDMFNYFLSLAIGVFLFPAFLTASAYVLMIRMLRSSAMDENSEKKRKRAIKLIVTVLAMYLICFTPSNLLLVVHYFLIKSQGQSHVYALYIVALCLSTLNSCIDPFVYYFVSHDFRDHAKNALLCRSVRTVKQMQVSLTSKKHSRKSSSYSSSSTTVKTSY
Experimental: (§1) Example 60: Protocol for Testing PAR2 Compounds in ANTAGONIST Mode Using the Ca FLIPR^TETRA Assay (384 Well)
(§2) 23000 HT-29 cells (ATCC# HTB-38) were plated in 384-well black, transparent-flat bottom plates and incubated in 25 uL of 1% FBS/McCoy's media ON at 37° C. under an atmosphere of 5% CO2. The following day, 25 uL FLIPR calcium 5 Molecular Devices assay reagent (Cat: R-8186) was added. Plates were incubated at 37° C. and r. t. for 45 min and 15 min, respectively. Compounds dilutions were prepared in 100% DMSO using a Biomek FX and diluted 20-fold in HBSS and then 5.5 uL was added directly to the cells by the FLIPR^TETRA (10× dilution) using FLIPR Tetra Pipette tips, black, non-sterile, 384 Molecular Devices (Cat: 9000-0764).
(§3) A first read was performed to determine whether the test compounds on their own can activate Ca2+ responses.
(§4) The cells were incubated with the compounds for 30 min at r. t. and then read in ANTAGONIST mode in the same plate by stimulating with 6.2 uL of a fixed concentration of the activator: final concentrations: 8 μM SLIGKV, 1 U/mL Thrombin, 3.1 U/mL trypsin, or 0.6 μM UTP.

[2] = molecular target: T2, PAR2 (HT-29 cells, trypsin activation) (Homo sapiens, UniProt P55085); test: Ca FLIPR TETRA assay, ANTAGONIST mode, stimulation with 3.1 U/mL trypsin; format: cell-based; settings: for IC50: HT-29 cells; for Trypsin % @ 50 μM: reported prior-art compounds
T2 construct: host or cells: HT-29 cells
T2 sequence (P55085 26-397): T1 sequence (P55085 26-397)
Experimental: as §1, §2, §3, §4

[3] = Table 8, reported compounds of WO2005/030773, JP2003286171, JP2004170323

SMILES: CC(C)c1cc(-c2ccc(F)cc2)nn2cc(C(=O)N3CCNC(=O)C3)nc12 [Compound I-591]
- IC50 ([1]; Table 6, 8 μM SLIGKV): 17 µM
- IC50 ([2]; Table 6, 3.1 U/mL trypsin): 41 µM

SMILES: CCOC(=O)C1CCCCN1C(=O)c1cc2nc(-c3ccc(Cl)cc3)cc(C(F)(F)F)n2n1 (stereo not drawn) [Compound P-592, reference compound]
- IC50 [1, 3]: 0.057 µM
- IC50 [2, 3]: 0.13 µM

SMILES: O=C(c1cc2nc(-c3ccc(Cl)cc3)cc(C(F)(F)F)n2n1)N1CCCCC1 [Compound P-593, reference compound]
- SLIGKV % @ 50 μM ([1]; Table 8, @ 50 μM, reported prior-art compounds): 67% @ 50 μM
- IC50 [2, 3]: > 50 µM

SMILES: O=C(c1cc2nc(-c3ccccc3)cc(C(F)(F)F)n2n1)N1CCCCC1 [Compound P-594, reference compound]
- IC50 [1, 3]: 4.67 µM
- IC50 [2, 3]: 28 µM

SMILES: CC1CCCCN1C(=O)c1cc2nc(-c3ccccc3)cc(C(F)(F)F)n2n1 (stereo not drawn) [Compound P-595, reference compound]
- IC50 [1, 3]: 1.73 µM
- IC50 [2, 3]: 19.2 µM

SMILES: O=C(c1ccccc1)N1CCN(C(=O)c2cc3nc(-c4ccccc4)cc(C(F)(F)F)n3n2)CC1 [Compound P-596, reference compound]
- IC50 [1, 3]: 10.8 µM
- IC50 [2, 3]: > 50 µM

SMILES: CN(CCO)C(=O)c1cc2nc(-c3ccc(Cl)cc3)cc(C(F)(F)F)n2n1 [Compound P-597, reference compound]
- IC50 [1, 3]: 17.4 µM
- IC50 [2, 3]: 27 µM

SMILES: CC1CCCCN1C(=O)c1cc2nc(-c3ccc(Cl)cc3)cc(C(F)(F)F)n2n1 (stereo not drawn) [Compound P-598, reference compound]
- IC50 [1, 3]: > 50 µM
- IC50 [2, 3]: > 50 µM

SMILES: O=C(c1cc2nc(-c3ccc(Cl)cc3)cc(C(F)(F)F)n2n1)N1CCCCCC1 [Compound P-599, reference compound]
- IC50 [1, 3]: 9.81 µM
- IC50 [2, 3]: > 50 µM

SMILES: O=C(O)C1CCCN(C(=O)c2cc3nc(-c4ccc(Cl)cc4)cc(C(F)(F)F)n3n2)C1 (stereo not drawn) [Compound P-600, reference compound]
- IC50 [1, 3]: 37 µM
- IC50 [2, 3]: > 50 µM

SMILES: O=C(c1cc2nc(-c3ccccc3)cc(C(F)(F)F)n2n1)N1CCCCCC1 [Compound P-601, reference compound]
- IC50 [1, 3]: 0.061 µM
- IC50 [2, 3]: 0.88 µM

SMILES: CN(CCO)C(=O)c1cc2nc(-c3ccccc3)cc(C(F)(F)F)n2n1 [Compound P-602, reference compound]
- IC50 [1, 3]: 31 µM
- IC50 [2, 3]: > 50 µM

SMILES: CCOC(=O)C1CCN(C(=O)c2cc3nc(-c4ccccc4)cc(C(F)(F)F)n3n2)CC1 [Compound P-603, reference compound]
- IC50 [1, 3]: 0.14 µM
- IC50 [2, 3]: 17 µM

SMILES: CCOC(=O)C1CCCCN1C(=O)c1cc2nc(-c3ccccc3)cc(C(F)(F)F)n2n1 (stereo not drawn) [Compound P-604, reference compound]
- IC50 [1, 3]: 0.64 µM
- IC50 [2, 3]: 3.85 µM

SMILES: CCOC(=O)C1CCN(C(=O)c2cc3nc(-c4ccc(Cl)cc4)cc(C(F)(F)F)n3n2)CC1 [Compound P-605, reference compound]
- IC50 [1, 3]: 0.073 µM
- Trypsin % @ 50 μM ([2]; Table 8): 50% @ 50 μM

SMILES: O=C(c1ccccc1)N1CCN(C(=O)c2cc3nc(-c4ccc(Cl)cc4)cc(C(F)(F)F)n3n2)CC1 [Compound P-606, reference compound]
- IC50 [1, 3]: 0.37 µM
- IC50 [2, 3]: > 50 µM

SMILES: O=C(c1cc2nc(-c3ccccc3)cc(C(F)(F)F)n2n1)N1CCC(c2ccc(F)cc2)C1 (stereo not drawn) [Compound P-607, reference compound]
- IC50 [1, 3]: > 50 µM
- IC50 [2, 3]: > 50 µM

SMILES: O=C(c1nn2c(C(F)(F)F)cc(-c3ccccc3)nc2c1Br)N1CCC(c2ccc(F)cc2)C1 (stereo not drawn) [Compound P-608, reference compound]
- IC50 [1, 3]: 23 µM
- IC50 [2, 3]: 33 µM

SMILES: O=C(c1cc2nc(-c3ccccc3)cc(C(F)(F)F)n2n1)N1CCC(O)CC1 [Compound P-609, reference compound]
- IC50 [1, 3]: 2.8 µM
- IC50 [2, 3]: 14 µM

SMILES: O=C(O)C1CCCCN(C(=O)c2cc3nc(-c4ccc(F)cc4)cc(C(F)(F)F)n3n2)C1 (stereo not drawn) [Compound P-610, reference compound]
- IC50 [1, 3]: 0.48 µM
- Trypsin % @ 50 μM ([2]; Table 8): 63% @ 50 μM

SMILES: O=C(O)C1CCCCN(C(=O)c2cc3nc(-c4ccc(Cl)cc4)cc(C(F)(F)F)n3n2)C1 (stereo not drawn) [Compound P-611, reference compound]
- IC50 [1, 3]: 0.11 µM
- IC50 [2, 3]: 1.25 µM
